In PubChem BioAssay (NCI):
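Protocol summary: plate cells (96-well), add compound at 5 concentrations, incubate 48 h, interpolate endpoints linearly. Abbreviation: GI50, concentration required for 50% inhibition of growth. TGI marks complete inhibition of growth.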

What was measured:
Assay in all cases: growth of human tumour cells (NCI), 48 h
MALME-3M melanoma = tested on: MALME-3M melanoma
MDA-MB-231 breast = tested on: MDA-MB-231 breast
MCF7 breast = tested on: MCF7 breast
OVCAR-3 ovarian = tested on: OVCAR-3 ovarian
HCC-2998 colon = tested on: HCC-2998 colon
EKVX NSCLC = tested on: EKVX NSCLC
NCI/ADR-RES ovarian = tested on: NCI/ADR-RES ovarian
ACHN renal = tested on: ACHN renal
SW-620 colon = tested on: SW-620 colon
HCT-15 colon = tested on: HCT-15 colon
RPMI-8226 leukemia = tested on: RPMI-8226 leukemia
HOP-92 NSCLC = tested on: HOP-92 NSCLC
SF-268 CNS = tested on: SF-268 CNS
UACC-62 melanoma = tested on: UACC-62 melanoma
NCI-H226 lung = tested on: NCI-H226 lung
PC-3 prostate = tested on: PC-3 prostate
OVCAR-8 ovarian = tested on: OVCAR-8 ovarian
HT29 colon = tested on: HT29 colon
OVCAR-5 ovarian = tested on: OVCAR-5 ovarian
KM12 colon = tested on: KM12 colon
T-47D breast = tested on: T-47D breast
UACC-257 melanoma = tested on: UACC-257 melanoma
SN12C renal = tested on: SN12C renal
UO-31 renal = tested on: UO-31 renal
HS 578T breast = tested on: HS 578T breast
A498 renal = tested on: A498 renal
IGROV1 ovarian = tested on: IGROV1 ovarian
CAKI-1 renal = tested on: CAKI-1 renal
MOLT-4 leukemia = tested on: MOLT-4 leukemia
SF-539 CNS = tested on: SF-539 CNS
LOX IMVI melanoma = tested on: LOX IMVI melanoma
CCRF-CEM leukemia = tested on: CCRF-CEM leukemia
BT-549 breast = tested on: BT-549 breast
RXF 393 renal = tested on: RXF 393 renal
NCI-H23 lung = tested on: NCI-H23 lung
SK-OV-3 ovarian = tested on: SK-OV-3 ovarian
SF-295 CNS = tested on: SF-295 CNS
M14 melanoma = tested on: M14 melanoma
COLO 205 colon = tested on: COLO 205 colon
SK-MEL-28 melanoma = tested on: SK-MEL-28 melanoma
HCT-116 colon = tested on: HCT-116 colon
HOP-62 NSCLC = tested on: HOP-62 NSCLC
SNB-19 CNS = tested on: SNB-19 CNS
HL-60(TB) leukemia = tested on: HL-60(TB) leukemia
786-0 renal = tested on: 786-0 renal
NCI-H460 lung = tested on: NCI-H460 lung
SK-MEL-2 melanoma = tested on: SK-MEL-2 melanoma
K-562 leukemia = tested on: K-562 leukemia
TK-10 renal = tested on: TK-10 renal
OVCAR-4 ovarian = tested on: OVCAR-4 ovarian
U251 CNS = tested on: U251 CNS
SR leukemia = tested on: SR leukemia
SK-MEL-5 melanoma = tested on: SK-MEL-5 melanoma
MDA-MB-435 = tested on: MDA-MB-435
SNB-75 CNS = tested on: SNB-75 CNS
A549 NSCLC = tested on: A549 NSCLC
DU-145 prostate = tested on: DU-145 prostate
NCI-H522 lung = tested on: NCI-H522 lung

For COc1ccc(Cl)cc1NC(=O)C(Br)C(Br)C(=O)O (stereo unspecified), which GI50 (MALME-3M melanoma) is on record?
Its GI50 is 9.88 µM.

And the TGI (MALME-3M melanoma)?
Its TGI is 28.8 µM.

And the GI50 (MDA-MB-231 breast)?
Its GI50 is 9.23 µM.

What about the TGI (MDA-MB-231 breast) of the same compound?
Its TGI is 26 µM.

And the GI50 (MCF7 breast)?
Its GI50 is 3.23 µM.

And the TGI (MCF7 breast)?
The TGI was greater than 47.9 µM.

What about the GI50 (OVCAR-3 ovarian) of the same compound?
Its GI50 is 2.63 µM.

What about the TGI (OVCAR-3 ovarian) of the same compound?
The TGI was 6.81 µM.

What about the GI50 (HCC-2998 colon) of the same compound?
Its GI50 is 8.25 µM.

What about the TGI (HCC-2998 colon) of the same compound?
Its TGI is 22.2 µM.

What about the GI50 (EKVX NSCLC) of the same compound?
Its GI50 is 21.9 µM.

And the TGI (EKVX NSCLC)?
The TGI was greater than 100 µM.

And the GI50 (NCI/ADR-RES ovarian)?
The GI50 was 3.03 µM.

What about the TGI (NCI/ADR-RES ovarian) of the same compound?
The TGI was 9.26 µM.

What about the GI50 (ACHN renal) of the same compound?
Its GI50 is 17.2 µM.

What about the TGI (ACHN renal) of the same compound?
The TGI was greater than 80.5 µM.

What about the GI50 (SW-620 colon) of the same compound?
Its GI50 is 5 µM.

And the TGI (SW-620 colon)?
Its TGI is greater than 51.5 µM.

What about the GI50 (HCT-15 colon) of the same compound?
Its GI50 is 10.2 µM.

What about the TGI (HCT-15 colon) of the same compound?
Its TGI is 32.2 µM.

What about the GI50 (RPMI-8226 leukemia) of the same compound?
Its GI50 is 17.7 µM.

What about the TGI (RPMI-8226 leukemia) of the same compound?
The TGI was greater than 91.7 µM.

And the GI50 (HOP-92 NSCLC)?
Its GI50 is 12.8 µM.

And the TGI (HOP-92 NSCLC)?
The TGI was 33.1 µM.

And the GI50 (SF-268 CNS)?
The GI50 was 4.33 µM.

And the TGI (SF-268 CNS)?
The TGI was 16.8 µM.

What about the GI50 (UACC-62 melanoma) of the same compound?
The GI50 was 2.81 µM.

And the TGI (UACC-62 melanoma)?
The TGI was 8.93 µM.

What about the GI50 (NCI-H226 lung) of the same compound?
Its GI50 is 13.7 µM.

What about the TGI (NCI-H226 lung) of the same compound?
Its TGI is 35.9 µM.

And the GI50 (PC-3 prostate)?
Its GI50 is 13.4 µM.

And the TGI (PC-3 prostate)?
The TGI was greater than 100 µM.

What about the GI50 (OVCAR-8 ovarian) of the same compound?
Its GI50 is 9.01 µM.

What about the TGI (OVCAR-8 ovarian) of the same compound?
The TGI was greater than 100 µM.

What about the GI50 (HT29 colon) of the same compound?
Its GI50 is 25.6 µM.

What about the TGI (HT29 colon) of the same compound?
Its TGI is greater than 68.3 µM.

What about the GI50 (OVCAR-5 ovarian) of the same compound?
The GI50 was 27.9 µM.

What about the TGI (OVCAR-5 ovarian) of the same compound?
Its TGI is 57 µM.

And the GI50 (KM12 colon)?
Its GI50 is 16.3 µM.

What about the TGI (KM12 colon) of the same compound?
The TGI was 39.2 µM.

And the GI50 (T-47D breast)?
Its GI50 is 3.27 µM.

What about the TGI (T-47D breast) of the same compound?
Its TGI is 14.3 µM.

And the GI50 (UACC-257 melanoma)?
The GI50 was 11 µM.

What about the TGI (UACC-257 melanoma) of the same compound?
The TGI was 40.5 µM.

And the GI50 (SN12C renal)?
Its GI50 is 4.02 µM.

And the TGI (SN12C renal)?
The TGI was 18.4 µM.

And the GI50 (UO-31 renal)?
Its GI50 is 19.2 µM.

And the TGI (UO-31 renal)?
Its TGI is 43.6 µM.

What about the GI50 (HS 578T breast) of the same compound?
The GI50 was 43.9 µM.

And the TGI (HS 578T breast)?
The TGI was greater than 100 µM.

What about the GI50 (A498 renal) of the same compound?
Its GI50 is 27.5 µM.

And the TGI (A498 renal)?
Its TGI is 73.2 µM.

What about the GI50 (IGROV1 ovarian) of the same compound?
The GI50 was 33.2 µM.

And the TGI (IGROV1 ovarian)?
Its TGI is greater than 73.5 µM.

And the GI50 (CAKI-1 renal)?
Its GI50 is 16.7 µM.

What about the TGI (CAKI-1 renal) of the same compound?
The TGI was 49.1 µM.

What about the GI50 (MOLT-4 leukemia) of the same compound?
The GI50 was 6.78 µM.

And the TGI (MOLT-4 leukemia)?
The TGI was greater than 100 µM.

And the GI50 (SF-539 CNS)?
Its GI50 is 11.5 µM.

And the TGI (SF-539 CNS)?
The TGI was 25.4 µM.

What about the GI50 (LOX IMVI melanoma) of the same compound?
Its GI50 is 1.02 µM.

What about the TGI (LOX IMVI melanoma) of the same compound?
The TGI was 2.52 µM.

What about the GI50 (CCRF-CEM leukemia) of the same compound?
The GI50 was 2.9 µM.

And the TGI (CCRF-CEM leukemia)?
The TGI was greater than 100 µM.

And the GI50 (BT-549 breast)?
Its GI50 is 3.23 µM.

And the TGI (BT-549 breast)?
The TGI was 13 µM.

And the GI50 (RXF 393 renal)?
The GI50 was 18.8 µM.

And the TGI (RXF 393 renal)?
The TGI was 40.9 µM.

What about the GI50 (NCI-H23 lung) of the same compound?
Its GI50 is 11.9 µM.

What about the TGI (NCI-H23 lung) of the same compound?
Its TGI is 47.8 µM.

And the GI50 (SK-OV-3 ovarian)?
The GI50 was greater than 100 µM.

And the TGI (SK-OV-3 ovarian)?
Its TGI is greater than 100 µM.

And the GI50 (SF-295 CNS)?
The GI50 was 38.9 µM.

And the TGI (SF-295 CNS)?
The TGI was greater than 100 µM.

And the GI50 (M14 melanoma)?
The GI50 was 14.9 µM.

What about the TGI (M14 melanoma) of the same compound?
Its TGI is 34.9 µM.

And the GI50 (COLO 205 colon)?
Its GI50 is 18.1 µM.

And the TGI (COLO 205 colon)?
The TGI was 34 µM.

What about the GI50 (SK-MEL-28 melanoma) of the same compound?
Its GI50 is 7.69 µM.

And the TGI (SK-MEL-28 melanoma)?
Its TGI is greater than 49.2 µM.

What about the GI50 (HCT-116 colon) of the same compound?
Its GI50 is 3.09 µM.

And the TGI (HCT-116 colon)?
Its TGI is 9.49 µM.

And the GI50 (HOP-62 NSCLC)?
Its GI50 is 4.79 µM.

And the TGI (HOP-62 NSCLC)?
Its TGI is 21.3 µM.

And the GI50 (SNB-19 CNS)?
The GI50 was 27.9 µM.

What about the TGI (SNB-19 CNS) of the same compound?
Its TGI is greater than 68.7 µM.

What about the GI50 (HL-60(TB) leukemia) of the same compound?
Its GI50 is 5.61 µM.

And the TGI (HL-60(TB) leukemia)?
Its TGI is greater than 100 µM.

And the GI50 (786-0 renal)?
Its GI50 is 21.7 µM.

And the TGI (786-0 renal)?
The TGI was 47.7 µM.

What about the GI50 (NCI-H460 lung) of the same compound?
The GI50 was 38 µM.

What about the TGI (NCI-H460 lung) of the same compound?
The TGI was greater than 100 µM.

And the GI50 (SK-MEL-2 melanoma)?
The GI50 was 7.54 µM.

And the TGI (SK-MEL-2 melanoma)?
The TGI was 26.2 µM.

And the GI50 (K-562 leukemia)?
Its GI50 is 1.46 µM.

And the TGI (K-562 leukemia)?
The TGI was greater than 100 µM.

What about the GI50 (TK-10 renal) of the same compound?
The GI50 was 6.59 µM.

What about the TGI (TK-10 renal) of the same compound?
The TGI was 28 µM.

What about the GI50 (OVCAR-4 ovarian) of the same compound?
The GI50 was 6.36 µM.

What about the TGI (OVCAR-4 ovarian) of the same compound?
The TGI was 60.6 µM.

And the GI50 (U251 CNS)?
The GI50 was 6.62 µM.

What about the TGI (U251 CNS) of the same compound?
Its TGI is 20.9 µM.

And the GI50 (SR leukemia)?
Its GI50 is 3.43 µM.

What about the TGI (SR leukemia) of the same compound?
The TGI was greater than 100 µM.

And the GI50 (SK-MEL-5 melanoma)?
The GI50 was 2.39 µM.

And the TGI (SK-MEL-5 melanoma)?
Its TGI is 7.1 µM.

And the GI50 (MDA-MB-435)?
The GI50 was 4.27 µM.

What about the TGI (MDA-MB-435) of the same compound?
Its TGI is 20.7 µM.

What about the GI50 (SNB-75 CNS) of the same compound?
Its GI50 is 26.6 µM.

What about the TGI (SNB-75 CNS) of the same compound?
The TGI was greater than 60.1 µM.

And the GI50 (A549 NSCLC)?
Its GI50 is greater than 74.3 µM.

What about the TGI (A549 NSCLC) of the same compound?
The TGI was greater than 100 µM.

What about the GI50 (DU-145 prostate) of the same compound?
Its GI50 is 35.7 µM.

And the TGI (DU-145 prostate)?
Its TGI is greater than 100 µM.

And the GI50 (NCI-H522 lung)?
The GI50 was 1.91 µM.

What about the TGI (NCI-H522 lung) of the same compound?
The TGI was 5.45 µM.
